Patent US20070299043A1, “Anti-scarring drug combinations and use thereof” (priority 2005, published 2007)

Assays:
MMP-3 (stromelysin) = assay: IL-1 induced MMP-3 (stromelysin) mRNA expression in chondrocytes, Northern blot; type: cell-based
Description: (§1) Cells were treated with paclitaxel at various concentrations (10^−7 to 10^−5 M) for 24 hours, then treated with IL-1β (20 ng/ml) for additional 18 hours in the presence of paclitaxel. Total RNA was isolated, and the MMP-1 mRNA levels were determined by Northern blot analysis. The blots were subsequently stripped and reprobed with ^32P-radiolabeled rat GAPDH cDNA, which was used as a housekeeping gene. […] Quantitation of collagenase-1 and stromelysin-expression mRNA levels were conducted. The MMP-1 and MMP-3 expression levels were normalized with GAPDH.

[1] = tested on: Chick Chorioallantoic Membrane (CAM); assay: Chick chorioallantoic membrane (CAM) angiogenesis assay; type: in vivo; conditions: for Inhibition/n: 48 hours exposure
Description: Fertilized, domestic chick embryos were incubated for 3 days prior to shell-less culturing. In this procedure, the egg contents were emptied by removing the shell located around the air space. The interior shell membrane was then severed and the opposite end of the shell was perforated to allow the contents of the egg to gently slide out from the blunted end. The egg contents were emptied into round-bottom sterilized glass bowls and covered with petri dish covers. These were then placed into an incubator at 90% relative humidity and 3% CO2 and incubated for 3 days.
Paclitaxel (Sigma, St. Louis, […].) was mixed at concentrations of 0.25, 0.5, 1, 5, 10, 30 μg per 10 ul aliquot of 0.5% aqueous methylcellulose. […] Ten microliter aliquots of this solution were dried on parafilm for 1 hour forming disks 2 mm in diameter. The dried disks containing paclitaxel were then carefully placed at the growing edge of each CAM at day 6 of incubation. Controls were obtained by placing paclitaxel-free methylcellulose disks on the CAMs over the same time course. After a 2 day exposure (day 8 of incubation) the vasculature was examined with the aid of a stereomicroscope. Liposyn II, a white opaque solution, was injected into the CAM to increase the visibility of the vascular details. The vasculature of unstained, living embryos were imaged using a Zeiss stereomicroscope which was interfaced with a video camera (Dage-MTI Inc., Michigan City, Ind.). […] Image negatives were then made on a graphics recorder (Model 3000; Matrix Instruments, Orangeburg, N.Y.).
The membranes of the 8 day-old shell-less embryo were flooded with 2% glutaraldehyde in 0.1 M sodium cacodylate buffer; additional fixative was injected under the CAM. After 10 minutes in situ, the CAM was removed and placed into fresh fixative for 2 hours at room temperature. The tissue was then washed overnight in cacodylate buffer containing 6% sucrose. The areas of interest were postfixed in 1% osmium tetroxide for 1.5 hours at 4° C. The tissues were then dehydrated in a graded series of ethanols, solvent exchanged with propylene oxide, and embedded in Spurr resin. Thin sections were cut with a diamond knife, placed on copper grids, stained, and examined in a Joel 1200EX electron microscope. Similarly, […] sections were cut and stained with […] for light microscopy.
At day 11 of development, chick embryos were used for the corrosion casting technique. Mercox resin (Ted Pella, Inc., Redding, Calif.) was injected into the CAM vasculature using a 30-gauge hypodermic needle. […] After injection, the plastic was allowed to sit in situ for an hour at room temperature and then overnight in an oven at 65° C. The CAM was then placed in 50% aqueous solution of sodium hydroxide to digest all organic components. The plastic casts were washed extensively in distilled water, air-dried, coated with gold/palladium, and viewed with the Philips 501B scanning electron microscope.
After 48 hours exposure to paclitaxel at concentrations of 0.25, 0.5, 1, 5, 10, or 30 μg, each CAM was examined under living conditions with a stereomicroscope equipped with a video/computer interface in order to evaluate the effects on angiogenesis. This imaging setup was used at a magnification of 160× which permitted the direct visualization of blood cells within the capillaries; thereby blood flow in areas of interest may be easily assessed and recorded. For this study, the inhibition of angiogenesis was defined as an area of the CAM (measuring 2-6 mm in diameter) lacking a capillary network and vascular blood flow. Throughout the experiments, avascular zones were assessed on a 4 point avascular gradient (see the table below). This scale represents the degree of overall inhibition with maximal inhibition represented as a 3 on the avascular gradient scale. Paclitaxel was very consistent and induced a maximal avascular zone (6 mm in diameter or a 3 on the avascular gradient scale) within 48 hours depending on its concentration. […]

AP-1 [2] = assay: IL-1 induced AP-1 binding activity in chondrocyte lysates (FIG. 3); type: cell-based; conditions: lysates from chondrocytes pretreated with paclitaxel
[3] = tested on: ACL injured guinea pig knees (osteoarthritis); assay: Inhibition of cartilage damage in the ACL injured Hartley guinea pig model of osteoarthritis; type: in vivo, Hartley guinea pigs; conditions: hyaluronic acid formulation; low dose (dose 1) and medium dose (dose 2); 5 weekly intra-articular injections; ten weeks after injury
Excerpt: The skin on the right knee was sterilized. A 20G needle was introduced in the knee joint using a medial approach and the anterior cruciate ligament was cut with the sharp end of the needle.
Two weeks after the initial procedure, the animals were anesthetized with isoflurane (5% induction −2% maintenance) and weighed. […] The skin of the injured knee was sterilised. […] Injections were repeated weekly for a total of 5 injections. Sample size was N=12 for each formulation. Two doses of paclitaxel and control formulation were tested.
A final knee measurement was taken. The skin over the knee area was removed without damaging subcutaneous tissues. The knee joints were then harvested en bloc and placed into a formaldehyde (37%)/acetic acid solution (5:1 ratio) for fixation. Samples were sent to an independent laboratory for the conduct of histological preparation of joints and assessment by a pathologist for signs of cartilage damage.
Briefly knee sections were made to examine cartilage and slides were stained with H&E stain. […] Bar graphs were constructed from each group and compared.

MMP-1 (collagenase-1) = assay: IL-1 induced MMP-1 (collagenase) mRNA expression in chondrocytes, Northern blot; type: cell-based
Description: as §1

AP-1 [4] = assay: IL-1 induced AP-1 DNA binding activity, gel mobility shift assay with chondrocyte extracts; type: cell-based; conditions: chondrocytes pretreated with paclitaxel 10^−7 to 10^−5 M for 24 hours
Description: Binding activity was assayed with a radiolabeled human AP-1 sequence probe and gel mobility shift assay. Extracts from chondrocytes untreated or treated with various amounts of paclitaxel (10^−7to 10^−5 M) followed by IL-1β (20 ng/ml) were incubated with excess probe on ice for 30 minutes, followed by non-denaturing gel electrophoresis. The “com” lane contains excess unlabeled AP-1 oligonucleotide. The results shown are representative of three independent experiments.

AP-1 [5] = assay: IL-1 stimulated AP-1 transcriptional activity (AP-1 driven CAT reporter gene) in transfected chondrocytes; type: cell-based; conditions: paclitaxel 10^−7 to 10^−5 M, concentration dependent; IL-1 50 ng/ml, 24 hours
Description: Chondrocytes were transfected with constructs containing an AP-1 driven CAT reporter gene, and stimulated with IL-1, IL-1 (50 ng/ml) was added and incubated for 24 hours in the absence and presence of paclitaxel at various concentrations. […] The data noted with an asterisk (*) have significance compared with IL-1-induced CAT activity according to a t-test, P<0.05. The results shown are representative of three independent experiments.

[6] = tested on: knee joint (synovial cavity); assay: Maximum tolerated dose (MTD) of a drug after intra-articular injection; conditions: for MTD (dose for which knee inflammation was not observed): 0.1 mL intra-articular
Description: Male Hartley guinea pigs, at least 6 weeks old, were anaesthetized using 5% isoflurane in an enclosed chamber. The animals were weighed and then transferred to the surgical table where anesthesia was maintained by nose cone with 2% isoflurane. The knee area on both legs was shaved and knee width at the head of the femur was measured on both knees. The skin on the right knee was sterilized. A 25G needle was introduced into the synovial cavity using a medial approach and 0.1 mL of the test formulation was injected. Three or seven days after the injection, the animals were sacrificed by cardiac injection of 0.7 mL Euthanyl under deep anesthesia (5% isoflurane). Sample size was N=3 for each formulation.
Knee function was assessed before sacrifice by recording changes in walking behavior and signs of tenderness. The animal was weighed immediately after sacrifice. The width of both knees at the head of the femur was then measured with calipers. The knee joint was dissected open by transecting the quadriceps tendon, cutting through the lateral and medial articular capsule and flipping the patella over the tibia. Knee inflammation was assessed by recording signs of swelling, vascularization, fluid accumulation and change in color in subcutaneous tissue as well as inner joint structures. Photographs were taken to document findings. All data was recorded by observers blinded to the treatment groups.

cartilage = assay: Hartley guinea pig knees with ACL damage, joint and cartilage score (FIG. 7, 8); type: in vivo
[7] = tested on: collagenase and stromelysin; assay: IL-1 induced collagenase and stromelysin RNA levels in chondrocytes (FIG. 4, 5); type: cell-based; conditions: pretreatment
[8] = in vivo; cited from earlier work
[9] = target: protein tyrosine phosphatase 1B (PTP1B) (Homo sapiens, UniProt P18031); conditions: cited from earlier work
Sequence of protein tyrosine phosphatase 1B (PTP1B) (P18031 whole entry): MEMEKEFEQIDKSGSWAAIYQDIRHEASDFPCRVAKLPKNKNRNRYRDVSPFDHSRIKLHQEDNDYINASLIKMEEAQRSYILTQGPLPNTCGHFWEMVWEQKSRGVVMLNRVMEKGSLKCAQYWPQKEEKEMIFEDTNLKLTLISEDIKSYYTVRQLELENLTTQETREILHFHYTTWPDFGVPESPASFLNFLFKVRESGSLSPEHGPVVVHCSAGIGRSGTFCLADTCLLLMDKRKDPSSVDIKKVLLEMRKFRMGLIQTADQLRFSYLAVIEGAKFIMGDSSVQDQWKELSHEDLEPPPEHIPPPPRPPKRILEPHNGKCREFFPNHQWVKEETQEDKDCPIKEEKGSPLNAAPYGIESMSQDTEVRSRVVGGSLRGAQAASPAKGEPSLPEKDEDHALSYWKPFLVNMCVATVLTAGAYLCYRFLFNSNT

endo-exonuclease = conditions: PCT Publication No. WO 01/35935; cited from earlier work
[10] = tested on: phosphatases of regenerating liver (PRL); conditions: cited from earlier work
[11] = in vivo; cited from earlier work; remark: listed apart in the source
[12] = tested on: Candida albicans, Trichophyton spp., Epidermophyton spp., and Aspergillus spp.; conditions: cited from earlier work
[13] = tested on: Candida spp., Aspergillus spp., Sporothrix schenckii, Penicillium marneffei, Malassezia furfur, Cryptococcus neoformans, Trichosporon spp. and …; conditions: against most of the listed species; cited from earlier work
[14] = 10^−5 M paclitaxel, pretreatment 24 hours

SMILES: CC(=O)O[C@H]1C(=O)[C@@]2(C)[C@H]([C@H](OC(=O)c3ccccc3)[C@]3(O)C[C@H](OC(=O)[C@H](O)[C@@H](NC(=O)c4ccccc4)c4ccccc4)C(C)=C1C3(C)C)[C@]1(OC(C)=O)CO[C@@H]1C[C@@H]2O [paclitaxel]
- IL-1 induced stromelysin mRNA levels (MMP-3 (stromelysin); [14]): complete inhibition
- concentration capable of inhibiting stromelysin expression in vitro (MMP-3 (stromelysin); chondrocytes): 10^−6 M
- Inhibition/n ([1]; 0.25 ug in methylcellulose (10 ul)): 2/11
- Inhibition/n ([1]; 0.5 ug in methylcellulose (10 ul)): 6/11
- Inhibition/n ([1]; 1 ug in methylcellulose (10 ul)): 6/15
- Inhibition/n ([1]; 5 ug in methylcellulose (10 ul)): 20/27
- Inhibition/n ([1]; 10 ug in methylcellulose (10 ul)): 16/21
- Inhibition/n ([1]; 30 ug in methylcellulose (10 ul)): 31/31
- maximal avascular zone on the avascular gradient scale ([1]; within 48 hours depending on concentration): 3
- IL-1 induced binding activity (AP-1 [2]): decreased
- cartilage damage (pathologist score) [3]: statistical reduction in cartilage damage relative to control
- IL-1 induced collagenase mRNA levels (MMP-1 (collagenase-1); [14]): complete inhibition
- concentration capable of inhibiting collagenase expression in vitro (MMP-1 (collagenase-1); chondrocytes): 10^−6 M
- IL-1 induced AP-1 binding to oligonucleotides (AP-1 [4]): IL-1 induced binding activity decreased
- IL-1 induced AP-1 reporter gene CAT activity (AP-1 [5]): reduced IL-1 induced AP-1 reporter gene CAT activity
- MTD (dose for which knee inflammation was not observed) ([6]; co-solvent formulation, 3 day evaluation): 1.5 mg/mL
- MTD (dose for which knee inflammation was not observed) ([6]; triblock gel formulation according to Example 34, evaluation at 7 days): 0.075 mg/mL
- tolerated doses ([6]; triblock gel formulation, evaluation after three days): up to 0.15 mg/ml
- average rank of joint scores, dose response trend (cartilage; Hartley guinea pig knees with ACL damage, p<0.02): statistically significant
- cartilage in knee cross section (cartilage; dose 1 (low dose)): fraying of cartilage
- cartilage in knee cross section (cartilage; dose 2 (medium dose)): minor defects to cartilage
- IL-1 induction of collagenase and stromelysin RNA levels [7]: can be inhibited

SMILES: O=C(Nc1ccc([N+](=O)[O-])cc1Cl)c1cc(Cl)ccc1O [Niclosamide, niclosamide]
- toxicity in mammals [8]: very low toxicity

SMILES: N=C(N)c1ccc(OCCCCCOc2ccc(C(=N)N)cc2)cc1 [pentamidine]
- inhibition of PTP1B [9]: effective inhibitor
- inhibition of the activity of endo-exonuclease (endo-exonuclease): inhibit the activity
- inhibition of oncogenic phosphatases of regenerating liver [10]: potent inhibitor

SMILES: CN(C)/N=N/c1[nH]cnc1C(N)=O [Dacarbazine, dacarbazine]
- absorption from the GI tract [11]: poorly absorbed

SMILES: Cc1cc(C2CCCCC2)n(O)c(=O)c1 [Ciclopirox, ciclopirox]
- antifungal activity [12]: fungistatic and fungicidal

SMILES: CN(C/C=C/C#CC(C)(C)C)Cc1cccc2ccccc12.Cl [terbinafine, terbinafine hydrochloride]
- in vitro antifungal activity [13]: has activity
